Measurements from patent US20170190705A1, “Compositions and Methods for Inhibiting BMP” (THE BRIGHAM AND WOMAN'S HOSPITAL, INC., priority 2014, published 2017).
Like-named read-outs stand apart in the source and are kept apart here.

Columns and labels:
[1] = test system: HePG2 hepatocarcinoma cells; assay type: cell-based; conditions: human
Experimental: The cells were incubated for 2 h (37° C. and 5% CO2) and allowed to settle and attach. Compounds of interest or DMSO were diluted in DMEM and added at final compound concentrations of 1 μM, 10 μM, and 100 μM. Cells were incubated for 4 hours and 24 hours after which the media was discarded. Cells were lysed by adding 30 μL of passive lysis buffer (Promega) and shaken at RT for 15 min. Cell viability was determined by quantifying the ATP present in each well by adding 10 μL of CellTiter-Glo (Promega) per well and measuring the light output Spectramax L luminometer (Molecular Devices) with an integration time of one second per well. Data was normalized to 100% viability for cells receiving only DMSO without any concurrent compound.

ALK2 = target: T1, ALK2 (Homo sapiens, UniProt Q04771, Q207D); assay: Thermal shift kinase assay ALK2; assay type: binding; conditions: for ΔTmDiff.: ALK2 minus ALK5; for ΔTm at 10 µM: 10 μM inhibitor
T1 construct: His tag (TEV-cleavable) (N, cleaved yes); made in house; host or cells: Sf9 insect cells (baculovirus)
T1 sequence (Q04771 201-499 Q207D): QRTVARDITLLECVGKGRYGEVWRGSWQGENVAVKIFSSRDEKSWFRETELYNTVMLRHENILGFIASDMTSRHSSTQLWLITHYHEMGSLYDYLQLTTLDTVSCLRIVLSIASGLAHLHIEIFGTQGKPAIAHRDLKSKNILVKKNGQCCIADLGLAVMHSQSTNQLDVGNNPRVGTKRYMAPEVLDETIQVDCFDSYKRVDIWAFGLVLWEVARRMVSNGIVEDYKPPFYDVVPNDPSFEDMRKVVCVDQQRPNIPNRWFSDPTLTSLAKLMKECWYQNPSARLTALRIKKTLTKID
Experimental: (§1) Thermal melting experiments were performed using a Real Time PCR machine Mx3005p (Stratagene) with a protein concentration of 1-2 μM and 10 μM inhibitor as described by Niesen et al., Nat Protoc 2007, 2, 2212-21. Recombinant human kinases for DSF screening were prepared by SGC using the published methods of Sanvitale et al., PLoS One 2013, 8, e62721. The potency and selectivity of certain compounds of the invention based on thermal shift kinase and ligand induced transcriptional activity assays are shown in Table 2.

TGFβ1 = assay: Ligand induced transcriptional activity assay TGFβ1 (CAGA-Luc); conditions: Homo sapiens; cell-based signaling inhibition
BMP6 = assay: Ligand induced transcriptional activity assay BMP6 (BRE-Luc); assay type: cell-based; conditions: for Fold Select.: TGFβ1 vs BMP6; for IC50: cell-based signaling inhibition, read-out: BMP6 IC50
caALK1 = target: T2, caALK1 (Homo sapiens, UniProt P37023, Q201D); assay: Luciferase reporter assay constitutively active ALK1; conditions: read-out: Cell Based Assay caALK1 IC50
T2 construct: expressed in transfected cells; host or cells: C2C12 BRE-Luc cells infected with adenovirus (MOI 100)
Experimental: (§2) The cells were incubated for 1 h (37° C. and 10% CO2) and allowed to settle and attach. Compounds of interest or DMSO were diluted in DMEM and added at final compound concentrations of 1 nM to 10 μM. Cells were then incubated for 30 min. Adenovirus expressing constitutively active BMP and TGF-β type I receptors (Ad.caALK1-5), generously provided by Dr. Akiko Hata (University of to California at San Francisco), were added to achieve a multiplicity of infection (MOI) of 100. Plates were incubated overnight at 37° C. Cell viability was assayed with an MIT (3-(4,5-dimethylthiazol-2-yl)-2,5-diphenyl tetrazolium bromide) colorimetric assay (Promega) per the manufacturer's instructions. Media was discarded, and firefly luciferase activity was measured (Promega) according to manufacturer's protocol. Light output was measured using a Spectramax L luminometer (Molecular Devices) with an integration time of one second per well. Data was normalized to 100% of incremental BRE-Luc activity due to adenoviruses specifying caALK1, 2, or 3, or the incremental CAGA-Luc activity due to adenoviruses specifying caALK4 or 5.

ALK5 = target: T3, ALK5 (Homo sapiens, UniProt P36897); assay: Thermal shift kinase assay ALK5; assay type: binding
T3 construct: made in house
T3 sequence (P36897 34-503): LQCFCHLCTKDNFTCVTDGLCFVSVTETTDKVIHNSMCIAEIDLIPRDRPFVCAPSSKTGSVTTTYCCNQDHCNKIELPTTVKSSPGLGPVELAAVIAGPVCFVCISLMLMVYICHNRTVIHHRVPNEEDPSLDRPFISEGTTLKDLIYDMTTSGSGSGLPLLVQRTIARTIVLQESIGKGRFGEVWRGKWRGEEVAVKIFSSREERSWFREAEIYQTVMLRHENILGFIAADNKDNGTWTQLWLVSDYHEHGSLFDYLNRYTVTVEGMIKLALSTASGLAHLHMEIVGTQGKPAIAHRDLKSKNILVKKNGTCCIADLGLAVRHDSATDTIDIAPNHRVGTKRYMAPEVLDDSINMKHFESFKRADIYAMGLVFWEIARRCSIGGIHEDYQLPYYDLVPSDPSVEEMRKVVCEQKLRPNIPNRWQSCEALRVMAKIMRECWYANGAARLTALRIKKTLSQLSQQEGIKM
Experimental: as §1

caALK4 = target: T4, caALK4 (Homo sapiens, UniProt P36896); assay: Luciferase reporter assay constitutively active ALK4; conditions: read-out: Cell Based Assay caALK4 IC50
T4 sequence (P36896 1-505 T206D): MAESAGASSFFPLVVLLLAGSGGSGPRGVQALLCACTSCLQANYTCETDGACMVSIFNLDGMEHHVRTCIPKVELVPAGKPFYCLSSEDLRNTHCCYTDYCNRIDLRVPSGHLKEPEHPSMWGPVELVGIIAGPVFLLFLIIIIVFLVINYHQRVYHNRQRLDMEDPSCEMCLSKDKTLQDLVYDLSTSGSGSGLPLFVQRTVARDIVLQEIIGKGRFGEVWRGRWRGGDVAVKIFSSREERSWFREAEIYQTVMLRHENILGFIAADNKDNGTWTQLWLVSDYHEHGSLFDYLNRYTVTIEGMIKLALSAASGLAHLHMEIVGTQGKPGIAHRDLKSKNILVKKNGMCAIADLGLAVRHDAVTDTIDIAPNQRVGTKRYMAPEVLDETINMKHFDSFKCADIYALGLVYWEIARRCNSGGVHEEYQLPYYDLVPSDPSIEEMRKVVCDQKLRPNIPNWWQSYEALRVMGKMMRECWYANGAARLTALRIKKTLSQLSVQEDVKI
Description: as §2, with “C2Cl2 […] cells stably transfected with BMP responsive element from the Id promoter fused to luciferase reporter gene (BRE-Luc) were generously provided by Dr. Peter ten Dijke (Leiden University Medical Center, NL) following the methods described by Zilberberg et al., BMC cell biology 2007, 8, 41-50. Human embryonic kidney 293T cells stably transfected with the TGF-β responsive element from the PAI-1 promoter fused to luciferase reporter gene (CAGA-Luc) were generously provided by Dr. Howard Weiner (Brigham and Women's Hospital, Boston, Mass.) following the methods described by Oida et al., PloS one 2011, 6, e18365. C2Cl2 Bre-Luc and 293T CAGA-Luc cells were seeded in DMEM supplemented with 2% FBS at 20,000 cells per well in tissue culture treated 96-well plates (Costar® 3610; Corning). The” for “The”

caALK3 = target: T5, caALK3 (Homo sapiens, UniProt P36894, Q233D); assay: Luciferase reporter assay constitutively active ALK3; conditions: read-out: Cell Based Assay caALK3 IC50
T5 construct: expressed in transfected cells; host or cells: C2C12 BRE-Luc cells infected with adenovirus (MOI 100)
Description: as §2, with “C2Cl2 […] cells stably transfected with BMP responsive element from the Id promoter fused to luciferase reporter gene (BRE-Luc) were generously provided by Dr. Peter ten Dijke (Leiden University Medical Center, NL) following the methods described by Zilberberg et al., BMC cell biology 2007, 8, 41-50. Human embryonic kidney 293T cells stably transfected with the TGF-β responsive element from the PAI-1 promoter fused to luciferase reporter gene (CAGA-Luc) were generously provided by Dr. Howard Weiner (Brigham and Women's Hospital, Boston, Mass.) following the methods described by Oida et al., PloS one 2011, 6, e18365. C2Cl2 Bre-Luc and 293T CAGA-Luc cells were seeded in DMEM supplemented with 2% FBS at 20,000 cells per well in tissue culture treated 96-well plates (Costar® 3610; Corning). The” for “The”

T5 sequence (P36894 24-532 Q233D): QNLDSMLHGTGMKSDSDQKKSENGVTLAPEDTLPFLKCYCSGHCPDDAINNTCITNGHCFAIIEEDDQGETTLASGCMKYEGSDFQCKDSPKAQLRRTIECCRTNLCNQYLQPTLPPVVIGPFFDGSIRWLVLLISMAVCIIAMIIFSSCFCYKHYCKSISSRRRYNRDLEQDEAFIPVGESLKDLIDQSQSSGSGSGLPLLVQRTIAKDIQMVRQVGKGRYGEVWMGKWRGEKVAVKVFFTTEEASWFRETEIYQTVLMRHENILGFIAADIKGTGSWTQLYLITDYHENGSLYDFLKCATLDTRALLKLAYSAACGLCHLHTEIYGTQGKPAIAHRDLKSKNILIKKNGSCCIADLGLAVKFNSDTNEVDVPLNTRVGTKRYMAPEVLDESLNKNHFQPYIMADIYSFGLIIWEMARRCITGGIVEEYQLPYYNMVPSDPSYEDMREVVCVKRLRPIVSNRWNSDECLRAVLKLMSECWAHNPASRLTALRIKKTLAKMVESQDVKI
T2 sequence (P37023 22-503 Q201D): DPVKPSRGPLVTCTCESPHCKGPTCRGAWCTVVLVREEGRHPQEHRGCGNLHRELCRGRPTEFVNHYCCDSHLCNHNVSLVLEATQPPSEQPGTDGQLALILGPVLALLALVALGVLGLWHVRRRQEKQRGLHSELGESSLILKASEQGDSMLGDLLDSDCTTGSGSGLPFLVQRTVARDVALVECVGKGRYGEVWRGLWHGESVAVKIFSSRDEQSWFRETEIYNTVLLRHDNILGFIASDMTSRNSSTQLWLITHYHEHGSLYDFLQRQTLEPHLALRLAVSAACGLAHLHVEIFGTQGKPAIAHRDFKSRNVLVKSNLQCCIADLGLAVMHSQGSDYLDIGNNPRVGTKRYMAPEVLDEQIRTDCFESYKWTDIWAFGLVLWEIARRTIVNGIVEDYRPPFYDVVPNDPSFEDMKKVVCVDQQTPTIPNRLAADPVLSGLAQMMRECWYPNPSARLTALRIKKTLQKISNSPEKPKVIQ

Structure (SMILES) | ΔTmDiff. (ALK2) | IC50 (TGFβ1) | IC50 (BMP6) | IC50 (caALK1) | ΔTm at 10 µM (ALK5; 10 μM inhibitor) | ΔT ALK5 (ALK5; Table 6) | ΔTm at 10 µM (ALK2) | ΔT ALK2 (ALK2; Table 6) | ΔT Diff. (ALK2; Table 6, ALK2 minus ALK5) | IC50 (caALK4) | IC50 (caALK3) | Cell viability ([1]; 4 h, 1 μM) | Cell viability ([1]; 4 h, 10 μM) | Cell viability ([1]; 4 h, 100 μM) | Cell viability ([1]; 24 h, 1 μM) | Cell viability ([1]; 24 h, 10 μM) | Cell viability ([1]; 24 h, 100 μM) | Fold Select. (BMP6)
COc1cc(-c2cc(-c3ccc(O)cc3)cnc2N)cc(OC)c1OC [Compound 11, 4-(6-Amino-5-(3,4,5-trimethoxyphenyl)pyridin-3-yl)phenol] | 1.5 | 0.58 ± 0.05 µM | 0.02 ± 0.001 µM | – | – | – | – | – | – | – | – | 95% | 98% | 91% | 99% | 89% | 82% | 28
COc1cc(-c2cnc(N)c(-c3cc(OC)c(OC)c(OC)c3)c2)ccc1O [Compound 12, 4-(6-amino-5-(3,4,5-trimethoxyphenyl)pyridin-3-yl)-2-methoxyphenol] | 1.7 | 2.3 µM | 0.09 ± 0.03 µM | – | – | – | – | – | – | – | – | 96% | 103% | 93% | 97% | 88% | 89% | –
COc1cc(-c2cc(-c3ccc(N4CCNCC4)cc3)cnc2N(C)C)cc(OC)c1OC [Compound 25, N,N-dimethyl-5-(4-(piperazin-1-yl)phenyl)-3-(3,4,5-trimethoxyphenyl)pyridin-2-amine] | 0.1 | 15 µM | 1.7 µM | – | – | – | – | – | – | – | – | 92% | 103% | 95% | 101% | 91% | – | –
COc1cc(-c2cncc(-c3ccc(N4CCNCC4)cc3)c2)cc(OC)c1OC [Compound 26, 1-(4-(5-(3,4,5-trimethoxyphenyl)pyridin-3-yl)phenyl)piperazine] | 3.7 | – | – | 0.202 µM | 10.4 °C | 10.4 °C | 14 °C | 14.1 °C | 3.7 °C | 0.427 µM | 0.105 µM | 96% | 103% | – | 103% | 80% | – | –
COc1cc(-c2cc(-c3cccc(O)c3)cnc2N)cc(OC)c1OC [Compound K02288, 3-(6-Amino-5-(3,4,5-trimethoxyphenyl)pyridin-3-yl)phenol, reference compound] | 2.0 | – | 0.42 ± 0.17 µM | – | – | – | 13.2 °C | – | – | – | – | 103% | 107% | 115% | 106% | 110% | – | –

More lines, in order of falling IC50 (BMP6), values ahead:

ΔTmDiff. (ALK2) | IC50 (TGFβ1) | IC50 (BMP6) | IC50 (caALK1) | ΔTm at 10 µM (ALK5; 10 μM inhibitor) | ΔT ALK5 (ALK5; Table 6) | ΔTm at 10 µM (ALK2) | ΔT ALK2 (ALK2; Table 6) | ΔT Diff. (ALK2; Table 6, ALK2 minus ALK5) | IC50 (caALK4) | IC50 (caALK3) | Structure (SMILES) | Cell viability ([1]; 4 h, 1 μM) | Cell viability ([1]; 4 h, 10 μM) | Cell viability ([1]; 4 h, 100 μM) | Cell viability ([1]; 24 h, 1 μM) | Cell viability ([1]; 24 h, 10 μM) | Cell viability ([1]; 24 h, 100 μM) | Fold Select. (BMP6)
0.1 | 82 µM | 1.7 µM | – | – | – | – | – | – | – | – | COc1cc(-c2cc(-c3ccc(N4CCNCC4)cc3)cnc2OC)cc(OC)c1OC [Compound 28, 1-(4-(6-methoxy-5-(3,4,5-trimethoxyphenyl)pyridin-3-yl)phenyl)piperazine] | 92% | 102% | – | 99% | 98% | – | –
3.8 | 90 µM | 0.17 ± 0.06 µM | – | – | – | – | – | – | – | – | COc1cc(-c2cc(-c3ccc(N4CCNCC4)cc3)cnc2Cl)cc(OC)c1OC [Compound 27, 1-(4-(6-chloro-5-(3,4,5-trimethoxyphenyl)pyridin-3-yl)phenyl)piperazine] | 95% | 103% | 97% | 101% | 98% | – | 244
